Measurements reported in patent publication US11976083B2, “Inhibitors of peptidylarginine deiminases” (Gilead Sciences, Inc., priority 2020, dated 2024).

Target: T1, human PAD4 (Homo sapiens, UniProt Q9UM07)
T1 construct: human PAD4 (NM_012387), A2-P663, was PCR amplified; His-SUMO (N, cleaved yes); made in house; host or cells: E. coli BL21(DE3)
Assay: In vitro PAD4 BAEE biochemical assay
Details: BAEE substrate 3 mM, 5 nM PAD4, 2 mM calcium chloride; geometric mean of multiple experiments
In short: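 Recombinant human PAD4 (5 nM final) with 2 mM CaCl2 was preincubated with compound 30 min at 25 °C in MOPS buffer pH 7.6, then reacted with 3 mM BAEE for 2 h at 25 °C. After EDTA stop, released ammonia was detected by o-phthalaldehyde/DTT fluorescence (ex 405/em 535 nm); IC50 from four-parameter fit, geometric mean.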

T1 sequence (Q9UM07 2-663): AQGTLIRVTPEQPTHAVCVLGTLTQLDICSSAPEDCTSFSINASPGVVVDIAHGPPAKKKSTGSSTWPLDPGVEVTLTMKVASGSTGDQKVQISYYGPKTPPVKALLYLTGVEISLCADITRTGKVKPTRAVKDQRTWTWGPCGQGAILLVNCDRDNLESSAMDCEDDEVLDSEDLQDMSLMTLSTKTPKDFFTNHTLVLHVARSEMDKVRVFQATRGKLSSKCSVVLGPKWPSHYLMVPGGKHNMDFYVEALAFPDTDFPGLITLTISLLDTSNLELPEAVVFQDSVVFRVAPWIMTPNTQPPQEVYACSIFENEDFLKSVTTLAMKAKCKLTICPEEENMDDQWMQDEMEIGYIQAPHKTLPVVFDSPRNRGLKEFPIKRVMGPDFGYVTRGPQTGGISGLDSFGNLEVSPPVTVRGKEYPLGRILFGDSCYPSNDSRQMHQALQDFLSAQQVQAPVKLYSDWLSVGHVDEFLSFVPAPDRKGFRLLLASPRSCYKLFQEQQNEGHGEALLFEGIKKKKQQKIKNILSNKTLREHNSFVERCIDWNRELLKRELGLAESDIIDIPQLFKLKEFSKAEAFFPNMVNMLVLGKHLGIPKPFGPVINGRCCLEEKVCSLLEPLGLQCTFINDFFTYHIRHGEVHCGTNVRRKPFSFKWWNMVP

IC50 [nM]	Compound
125	COc1cc(C(=O)N2CC[C@@H](OC)[C@@H](N)C2)cc2nc(-c3cc4ccc5nc4n3CCC/C=C/c3ccccc3C(=O)N[C@@H]5C)n(C)c12 [Example 496, (2~{R},11~{E})-17-[5-[(3~{S},4~{R})-3-amino-4-methoxy-piperidine-1-carbonyl]-7-methoxy-1-methyl-benzimidazol-2-yl]-2-methyl-3,16,22-triazatetracyclo[14.5.2.0^ {5,10).0^{19,23}]tricosa-1(22),5(10),6,8,11,17,19 (23),20-octaen-4-one]
27	COc1cc(C(=O)N2C[C@H](N)[C@@H]3CC[C@H]2C3)cc2nc(-c3cc4ccc5nc4n3CCCCC[C@@H]3C[C@@]3(C)C(=O)N[C@@H]5C)n(C)c12 [Example 917, (2~{R},5~{R},7~{R})-14-[5-[(1~{S),4~{R},5~{R})-4-amino-2-azabicyclo[3.2.1]octane-2-carbonyl]-7-methoxy-1-methyl-benzimidazol-2-yl]-2,5-dimethyl-3,13,19-triazatetracyclo[11.5.2.0^ {5,7}.0^{16,20}]icosa-1(19), 14,16(20),17-tetraen-4-one]
176	COc1cc(C(=O)N2[C@H]3CC[C@@H]2[C@H](N)[C@H](OC(F)F)C3)cc2nc(-c3cc4ccc5nc4n3CCCCC[C@@H]3C[C@H]3C(=O)N[C@@H]5C)n(C)c12 [Example 581, (2~{R},5~{R},7~{R})-14-[5-[(1~{R},2~{S},3~ {R},5~{S})-2-amino-3-(difluoromethoxy)-8-azabicyclo[3.2.1]octane-8-carbonyl]-7-methoxy-1-methyl-benzimidazol-2-yl]-2-methyl-3,13,19-triazatetracyclo[11.5.2.0^ {5,7}.0^{16,20}]icosa-1(19), 14,16(20),17-tetraen-4-one]
56	COc1cc(C(=O)N2C[C@H](N)[C@@H]3CC[C@H]2C3)cc2nc(-c3cc4ccc5nc4n3CCCCCc3cc(C(F)F)ccc3C(=O)N[C@@H]5C)n(C)c12 [Example 896, (2~{R})-17-[5-[(1~{S),4~{R},5~ {R})-4-amino-2-azabicyclo [3.2.1]octane-2-carbonyl]-7-methoxy-1-methyl-benzimidazol-2-yl]-8-(difluoromethyl)-2-methyl-3,16,22-triazatetracyclo [14.5.2.0^{5,10}.0^{19,23}] tricosa-1(22),5(10),6,8,17,19(23), 20-heptaen-4-one]
190	COc1cc(C(=O)N2CC[C@@H](OC)[C@@H](N)C2)cc2nc(-c3cc4ccc5nc4n3CCCCCc3cnc(C)nc3C(=O)N[C@@H]5C)n(C)c12 [Example 610, (2~{R})-17-[5-[(3~{S},4~ {R})-3-amino-4-methoxy-piperidine-1-carbonyl]-7-methoxy-1-methyl-benzimidazol-2-yl]-2,7-dimethyl-3,6,8,16,22-pentazatetracyclo[14.5.2.0^ {5,10}.0^{19,23}]tricosa-1(21),5(10),6,8,17,19,22-heptaen-4-one]
82	C[C@H]1NC(=O)C(C)(C)CCCCCCn2c(-c3nc4cc(C(=O)N[C@H]5CNCC[C@@H]5F)ccc4n3C3CC3)cc3ccc1nc32 [Example 376, 1-cyclopropyl-~{N}-[(3~{S},4~{S})-4-fluoro-3-piperidyl]-2-[(11~{R})-8,8,11-trimethyl-9-oxo-1,10,19-triazatricyclo[10.5.2.0^{15,18}]nonadeca-12(19),13,15(18),16-tetraen-17-yl]benzimidazole-5-carboxamide]
165	COc1cc(C(=O)N2[C@H]3CC[C@@H]2[C@H](N)C3)cc2nc(-c3cc4ccc5cc4n3CCCCCCC(=O)Nc3ccccc3-5)n(C)c12 [Example 94, 17-[5-[(1~{R},2~{R},4~{S})-2-amino-7-azabicyclo[2.2.1]heptane-7-carbonyl]-7-methoxy-1-methyl-benzimidazol-2-yl]-8,16-diazatetracyclo[14.5.2.0^{2,7}.0^{19,23}] tricosa-1(22),2,4,6,17,19(23),20-heptaen-9-one]
201	COc1cc(C(=O)N2CCC[C@@H](N)C2)cc2nc(-c3cc4ccc5nc4n3CCCCCC(C)(C)C(=O)N[C@@H]5C)c(C)n12 [Example 106, (10~{R})-16-[7-[(3~{R})-3-aminopiperidine-1-carbonyl]-5-methoxy-3-methyl-imidazo[1,2-a]pyridin-2-yl]-7,7,10-trimethyl-1,9,18-triazatricyclo[9.5.2.0^{14,17}]octadeca-11(18),12,14(17),15-tetraen-8-one]
84	COc1cc(C(=O)N2CC[C@@H](OC(F)F)[C@@H](N)C2)cc2nc(-c3cc4ccc5cc4n3CCCCCc3nccnc3C(=O)N[C@@H]5C)n(C)c12 [Example 577, (2~{R})-17-[5-[(3~{S),4~{R})-3-amino-4-(difluoromethoxy)piperidine-1-carbonyl]-7-methoxy-1-methyl-benzimidazol-2-yl]-2-methyl-3,6,9,16-tetrazatetracyclo [14.5.2.0^{5,10}.0^{19, 23}]tricosa-1(22),5(10), 6,8,17,19(23),20-heptaen-4-one]
25	COc1cc(C(=O)N2[C@H]3CC[C@@H]2[C@H](N)C3)cc2nc(-c3cc4ccc5nc4n3CCCCCC(C)(C)C(=O)N[C@@H]5C)c(C)n12 [Example 126, (10~{R})-16-[7-[(1~{R},2~{R},4~{S})-2-amino-7-azabicyclo[2.2.1]heptane-7-carbonyl]-5-methoxy-3-methyl-imidazo[1,2-a]pyridin-2-yl]-7,7,10-trimethyl-1,9,18-triazatricyclo[9.5.2.0^{14,17}]octadeca-11(18),12,14(17),15-tetraen-8-one]
45	CCc1c(-c2cc3ccc4nc3n2CCCCCCCC(=O)N[C@@H]4C)nn2cc(C(=O)N3[C@H]4CC[C@@H]3[C@H](N)C4)ccc12 [Example 252, 17-[5-[(1˜{R},2˜{R},4˜{S})-2-amino-7-azabicyclo[2.2.1]heptane-7-carbonyl]-3-ethylpyrazolo[1,5-a]pyridin-2-yl]-11-methyl-1,10,19-triazatricyclo[10.5.2.0^{15,18}]nonadeca-12(19),13,15(18),16-tetraen-9-one]
106	COc1cc(C(=O)N2CC[C@H]3CCCN[C@H]3C2)cc2nc(-c3cc4ccc5nc4n3CCCCCCC(C)(C)C(=O)N[C@@H]5C)n(C)c12 (single isomer, unassigned) [Example 261, (11˜{R})-17-[5-[(4˜{a}˜{R},8˜{a}˜{R})-2,3,4,4˜{a},5,6,8,8˜{a}-octahydro-1˜{H}-1,7-naphthyridine-7-carbonyl]-7-methoxy-1-methyl-benzimidazol-2-yl]-8,8,11-trimethyl-1,10,19-triazatricyclo[10.5.2.0^{15,18}]nonadeca-12(19),13,15(18),16-tetraen-9-one]
161	COc1cc(C(=O)N[C@H]2CNC[C@@H](O)C2)cc2nc(-c3cc4ccc5nc4n3CCCCCCC(C)(C)C(=O)N[C@@H]5C)n(C)c12 [Example 59, ~{N}-[(3~{R},5~{S})-5-hydroxy-3-piperidyl]-7-methoxy-1-methyl-2-[(11~{R})-8,8,11-trimethyl-9-oxo-1,10,19-triazatricyclo[10.5.2.0^{15,18}]nonadeca-12(19),13,15(18),16-tetraen-17-yl]benzimidazole-5-carboxamide]
25	C[C@H]1NC(=O)[C@]2(F)C[C@H]2CCCCCn2c(-c3nc4cc(C(=O)N[C@H]5CNCC[C@@H]5F)c(F)cc4n3C3CC3)cc3ccc1nc32 [Example 387, 1-cyclopropyl-6-fluoro-2-[(2~{R},5~{S},7~{R})-5-fluoro-2-methyl-4-oxo-3,13,19-triazatetracyclo[11.5.2.0^{5,7}.0^{16,20}]icosa-1(19),14,16(20),17-tetraen-14-yl]-~ {N}-[(3~{S},4~{S})-4-fluoro-3-piperidyl]benzimidazole-5-carboxamide]
18	COc1cc(C(=O)N2C[C@H](N)[C@@H]3CC[C@H]2C3)cc2nc(-c3cc4ccc5nc4n3CCCCC[C@H]3[C@H](C(=O)N[C@@H]5C)C3(F)F)c(C)n12 [Example 929, (2~{R},5~{R},7~{S})-14-[7-[(1~{S},4~{R},5~{R})-4-amino-2-azabicyclo[3.2.1]octane-2-carbonyl]-5-methoxy-3-methyl-imidazo[1,2-a]pyridin-2-yl]-6,6-difluoro-2-methyl-3,13,19-triazatetracyclo[11.5.2.0^ {5,7}.0^{16,20}]icosa-1(19), 14,16(20),17-tetraen-4-one]
109	C[C@H]1NC(=O)[C@@H]2C[C@H]2CCCCCn2c(-c3nc4cc(C(=O)N5CC6(CCCNC6)C5)c(F)cc4n3C3CC3)cc3ccc1nc32 [Example 569, (2~{R},5~{R},7~{R})-14-[1-cyclopropyl-5-(2,8-diazaspiro[3.5]nonane-2-carbonyl)-6-fluoro-benzimidazol-2-yl]-2-methyl-3,13,19-triazatetracyclo [11.5.2.0^{5,7}.0^ {16,20}]icosa-1(19),14, 16(20),17-tetraen-4-one]
27	COc1cc(C(=O)N2C[C@H](N)[C@@H]3CC[C@H]2C3)cc2nc(-c3cc4ccc5nc4n3CCCCC[C@]3(F)C[C@H]3C(=O)NC5(C)C)n(C)c12 [Example 933, (5~{S},7~{S})-14-[5-[(1~{S},4~{R},5~{R})-4-amino-2-azabicyclo[3.2.1]octane-2-carbonyl]-7-methoxy-1-methyl-benzimidazol-2-yl]-7-fluoro-2,2-dimethyl-3,13,19-triazatetracyclo[11.5.2.0^ {5,7}.0^{16,20}]icosa-1(18), 14,16,19-tetraen-4-one]
80	COc1cc(C(=O)N[C@@H]2CCCCNC2)cc2nc(-c3cc4ccc5nc4n3CCCCCCC(C)(C)C(=O)N[C@@H]5C)n(C)c12 [Example 78, ~{N}-[(3~{R})-azepan-3-yl]-7-methoxy-1-methyl-2-[(11~{R})-8,8,11-trimethyl-9-oxo-1,10,19-triazatricyclo[10.5.2.0^{15,18}]nonadeca-12(19),13,15(18),16-tetraen-17-yl]benzimidazole-5-carboxamide]
